# ChEMBL document CHEMBL1201862, “PubChem BioAssay data set” (2004)
#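 Protocol summary: plate cells (96-well), add compound at 5 concentrations, incubate 48 h, interpolate endpoints linearly. GI50 marks 50% less growth.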 The source made the active and inactive calls. Rule as the data show it: active = GI50 up to about 1.1 µM and inactive = higher.
# Columns and labels:
# Assay in all cases: NCI tumour cell line growth inhibition, 48 h
# [1] = test system: DU-145
# [2] = test system: HOP-62
# [3] = test system: SF-539
# [4] = test system: A498
# [5] = test system: MDA-MB-231
# [6] = test system: BT-549
# [7] = test system: NCI-H460
# [8] = test system: Hs-578T
# [9] = test system: SNB-19
# [10] = test system: SK-MEL-28
# [11] = test system: SNB-75
# [12] = test system: OVCAR-4
# [13] = test system: UACC-62
# [14] = test system: NCI-H23
# [15] = test system: MOLT-4
# [16] = test system: M14
# [17] = test system: HCT-15
# [18] = test system: RPMI-8226
# [19] = test system: SK-OV-3
# [20] = test system: UACC-257
# [21] = test system: TK-10
# [22] = test system: SN12C
# [23] = test system: HCC 2998
# [24] = test system: SR
# [25] = test system: MDA-N
# [26] = test system: OVCAR-3
# [27] = test system: RXF 393
# [28] = test system: COLO 205
# [29] = test system: HL-60
# [30] = test system: T47D
# [31] = test system: OVCAR-5
# [32] = test system: LOX IMVI
# [33] = test system: MCF7
# [34] = test system: HCT-116
# [35] = test system: U-251
# [36] = test system: SF-295
# [37] = test system: EKVX
# [38] = test system: MDA-MB-435
# [39] = test system: CCRF-CEM
# [40] = test system: SK-MEL-2
# [41] = test system: A549
# [42] = test system: IGROV-1
# [43] = test system: HOP-92
# [44] = test system: KM12
# [45] = test system: K562
# [46] = test system: 786-0
# [47] = test system: OVCAR-8
# [48] = test system: NCI-H522
# [49] = test system: NCI/ADR-RES
# [50] = test system: SF-268
# [51] = test system: UO-31
# [52] = test system: HT-29
# [53] = test system: PC-3
# [54] = test system: NCI-H226
# [55] = test system: SW-620
# [56] = test system: CAKI-1
# [57] = test system: ACHN
# [58] = test system: Malme-3M
# [59] = test system: SK-MEL-5
smiles,measurement,setting,value
C=C(Cl)c1c(OC)cccc1OCc1ccccc1,GI50,[1],> 100 µM (inactive)
same,GI50,[2],> 100 µM (inactive)
same,GI50,[3],> 100 µM (inactive)
same,GI50,[4],62.4 µM (inactive)
same,GI50,[5],64.7 µM (inactive)
same,GI50,[6],> 100 µM (inactive)
same,GI50,[7],> 100 µM (inactive)
same,GI50,[8],> 100 µM (inactive)
same,GI50,[9],> 100 µM (inactive)
same,GI50,[10],> 100 µM (inactive)
same,GI50,[11],23.5 µM (inactive)
same,GI50,[12],98.9 µM (inactive)
same,GI50,[13],30.4 µM (inactive)
same,GI50,[14],26.1 µM (inactive)
same,GI50,[15],64.7 µM (inactive)
same,GI50,[16],> 100 µM (inactive)
same,GI50,[17],92.7 µM
same,GI50,[18],43 µM (inactive)
same,GI50,[19],> 100 µM (inactive)
same,GI50,[20],20 µM (inactive)
same,GI50,[21],> 100 µM (inactive)
same,GI50,[22],> 100 µM (inactive)
same,GI50,[23],37.4 µM (inactive)
same,GI50,[24],26.8 µM (inactive)
same,GI50,[25],42 µM (inactive)
same,GI50,[26],> 100 µM (inactive)
same,GI50,[27],16.7 µM (inactive)
same,GI50,[28],98.2 µM (inactive)
same,GI50,[29],29.2 µM (inactive)
same,GI50,[30],25.1 µM (inactive)
same,GI50,[31],> 100 µM (inactive)
same,GI50,[32],69.7 µM (inactive)
same,GI50,[33],58.5 µM (inactive)
same,GI50,[34],56.8 µM (inactive)
same,GI50,[35],> 100 µM (inactive)
same,GI50,[36],> 100 µM (inactive)
same,GI50,[37],59.4 µM (inactive)
same,GI50,[38],37 µM (inactive)
same,GI50,[39],75 µM (inactive)
same,GI50,[40],> 100 µM (inactive)
same,GI50,[41],> 100 µM (inactive)
same,GI50,[42],57.5 µM (inactive)
same,GI50,[43],22.2 µM (inactive)
same,GI50,[44],54.2 µM (inactive)
same,GI50,[45],48.2 µM (inactive)
same,GI50,[46],> 100 µM (inactive)
same,GI50,[47],> 100 µM (inactive)
same,GI50,[48],44.6 µM (inactive)
same,GI50,[49],> 100 µM (inactive)
same,GI50,[50],> 100 µM (inactive)
same,GI50,[51],55 µM (inactive)
same,GI50,[52],34.5 µM (inactive)
same,GI50,[53],> 100 µM (inactive)
same,GI50,[54],48.2 µM (inactive)
same,GI50,[55],71 µM (inactive)
same,GI50,[56],> 100 µM (inactive)
same,GI50,[57],90.8 µM (inactive)
same,GI50,[58],> 100 µM (inactive)
same,GI50,[59],34.4 µM (inactive)
CN1C(=O)C23CC4=CC=CC(O)C4N2C(=O)C1(CO)SS3 (stereo not drawn),GI50,[1],0.157 µM (active)
same,GI50,[2],0.182 µM (active)
same,GI50,[3],0.0204 µM (active)
same,GI50,[4],0.234 µM (active)
same,GI50,[5],0.199 µM (active)
same,GI50,[6],0.291 µM (active)
same,GI50,[7],0.0948 µM (active)
same,GI50,[8],0.39 µM (active)
same,GI50,[9],0.553 µM (active)
same,GI50,[10],0.507 µM (active)
same,GI50,[11],0.21 µM (active)
same,GI50,[12],0.223 µM (active)
same,GI50,[13],0.179 µM (active)
same,GI50,[14],0.167 µM (active)
same,GI50,[15],0.134 µM (active)
same,GI50,[16],0.0506 µM (active)
same,GI50,[17],0.0845 µM
same,GI50,[18],0.163 µM (active)
same,GI50,[19],1.26 µM (inactive)
same,GI50,[20],0.299 µM (active)
same,GI50,[21],0.179 µM (active)
same,GI50,[22],0.0705 µM (active)
same,GI50,[23],0.155 µM (active)
same,GI50,[24],0.0291 µM (active)
same,GI50,[25],0.188 µM (active)
same,GI50,[26],0.199 µM (active)
same,GI50,[27],0.179 µM (active)
same,GI50,[28],0.0524 µM (active)
same,GI50,[29],0.0223 µM (active)
same,GI50,[30],0.183 µM (active)
same,GI50,[31],0.0526 µM (active)
same,GI50,[32],0.17 µM (active)
same,GI50,[33],0.16 µM (active)
same,GI50,[34],0.107 µM (active)
same,GI50,[35],0.153 µM (active)
same,GI50,[36],0.181 µM (active)
same,GI50,[37],0.368 µM (active)
same,GI50,[38],0.224 µM (active)
same,GI50,[39],0.0205 µM (active)
same,GI50,[40],0.22 µM (active)
same,GI50,[41],0.171 µM (active)
same,GI50,[42],0.145 µM (active)
same,GI50,[43],0.165 µM (active)
same,GI50,[44],0.0991 µM (active)
same,GI50,[45],0.139 µM (active)
same,GI50,[46],0.084 µM (active)
same,GI50,[47],0.0611 µM (active)
same,GI50,[48],0.169 µM (active)
same,GI50,[49],0.0224 µM (active)
same,GI50,[50],0.207 µM (active)
same,GI50,[51],0.565 µM (active)
same,GI50,[52],0.0188 µM (active)
same,GI50,[53],0.167 µM (active)
same,GI50,[54],0.0891 µM (active)
same,GI50,[55],0.237 µM (active)
same,GI50,[56],0.308 µM (active)
same,GI50,[57],0.174 µM (active)
same,GI50,[58],0.223 µM (active)
same,GI50,[59],0.173 µM (active)
